Columns and labels:
Type in all cases: cell-based
[1] = test system: triple negative human breast cancer cells (MDA-MB-231); assay: Proliferation test (DNA in vital cells, dose-response); settings: Homo sapiens; inhibition of proliferation of MDA-MB-231, tested after 24, 48, 72h in cell culture
Procedure: The EC50 refers to the inhibitory effect of the compounds on the proliferation of triple negative human breast cancer cells (MDA-MB-231), tested after 24, 48, 72h in cell culture.
We used the triple-negative human breast cancer line, MDA-MB-231 and quantified DNA in vital cells. Dose-response curves were made after 24, 48 & 72 h. […] The compound with the lowest EC50 (Compound #1) was tested in vivo.

MDA-MB-231 = assay: Luminescent cell viability assay (ATP); settings: Homo sapiens, 46 hours, luciferase signal normalized to untreated cells = 1, read-out: Relative viability MDA-MB-231
Procedure: (§1) Compounds were assessed for effects on viability of the breast cancer cell lines MDA-MB-231 and MDA-MB-453. The cells were incubated with the compounds for 46 hours at a concentration of 5 uM. DMSO was used as vehicle control. Cell viability was assessed after approximately 46 hours by using a luminescent cell viability assay. This assay generates a luminescent signal, proportional to the amount of ATP that is present as a readout of metabolically active cells. Relative viability was calculated by expressing the luciferase signal as a value normalized to untreated cells, meaning that the measured luciferase signal in untreated cells equals 1.

MDA-MB-453 = assay: Luminescent cell viability assay (ATP); settings: Homo sapiens, 46 hours, luciferase signal normalized to untreated cells = 1, read-out: relative viability MDA-MB-453
Procedure: as §1

| Structure (SMILES) | EC50 [1] | viability at 5 µM (MDA-MB-231) | viability at 5 µM (MDA-MB-453) |
| --- | --- | --- | --- |
| Cc1nc(N)nc(N)c1CCC(C)c1ccc(F)cc1 (stereo not drawn) [compound 3, 5-[3-(4-fluorophenyl)butyl]-6-methylpyrimidine-2,4-diamine] | 200 nM | 87.7% | 82.7% |
| CC(C)(C=Cc1c(N)nc(N)nc1CCC(F)(F)F)c1ccc(C(F)(F)F)cc1 [compound 4, 5-{3-methyl-3-[4-(trifluoromethyl)phenyl]but-1-en-1-yl}-6-(3,3,3-trifluoropropyl)pyrimidine-2,4-diamine] | 400 nM | 115% | 78.9% |
| Cc1nc(N)nc(NCc2ccccn2)c1C=CC(C)(C)c1ccc(C(F)(F)F)cc1 [compound 5, 6-methyl-5-[3-methyl-3-[4-(trifluoromethyl)phenyl]but-1-en-1-yl]-N^4-[(pyridin-2-yl)methyl]pyrimidine-2,4-diamine] | 800 nM | 74.1% | 20.7% |
| Cc1nc(NCc2ccccn2)nc(N)c1C=CC(C)(C)c1ccc(C(F)(F)F)cc1 [compound 6, 6-methyl-5-{3-methyl-3-[4-(trifluoromethyl)phenyl]but-1-en-1-yl}-N^2-[(pyridin-2-yl)methyl]pyrimidine-2,4-diamine] | 2000 nM | – | – |
| Cc1nc(N)nc(N)c1C=CC(C)c1ccc(C(F)(F)F)cc1 (stereo not drawn) [compound 7, 2-amino-6-methyl-5-{3-[4-(trifluoromethyl)phenyl]-1-butenyl}-4-pyrimidinylamine] | – | 94.2% | 54% |
| Cc1nc(N)nc(N)c1C=CC1(c2ccc(Cl)cc2)CC1 [compound 8, 5-[2-[1-(4-chlorophenyl)cyclopropyl]vinyl]-6-methylpyrimidine-2,4-diamine] | – | 91.2% | 49.5% |
| Cc1nc(N)nc(N)c1C=CC(C)(C)c1ccc(C(F)(F)F)cc1 [compound 9, 2-amino-6-methyl-5-{3-methyl-3-[4-(trifluoromethyl)phenyl]-1-butenyl}-4-pyrimidinylamine] | – | 91.8% | 38.9% |
| COc1ccc(C(C)(C)C=Cc2c(C)nc(N)nc2N)cc1 [compound 11, 2-amino-5-[3-(4-methoxyphenyl)-3-methyl-1-butenyl]-6-methyl-4-pyrimidinylamine] | – | 87.5% | 48.7% |
| Cc1nc(N)nc(N)c1C=CC(C)(C)c1ccc(Cl)cc1 [compound 12, 2-amino-5-[3-(4-chlorophenyl)-3-methyl-1-butenyl]-6-methyl-4-pyrimidinylamine] | – | 93.3% | 56.5% |
| Cc1nc(N)nc(N)c1C=CC(C)(C)c1ccc(Cl)c(Cl)c1 [compound 13, 2-amino-5-[3-(3,4-dichlorophenyl)-3-methyl-1-butenyl]-6-methyl-4-pyrimidinylamine] | – | 79.6% | 48.9% |
| Cc1nc(N)nc(N)c1C=CC(C)c1cccc(Cl)c1 (stereo not drawn) [compound 14, 2-amino-5-[3-(3-chlorophenyl)-1-butenyl]-6-methyl-4-pyrimidinylamine] | – | 90.5% | 61.9% |
| COc1cc(OC)cc(C(C)(C)C=Cc2c(C)nc(N)nc2N)c1 [compound 15, 5-[3-(3,5-dimethoxyphenyl)-3-methyl-1-butenyl]-6-methyl-2,4-pyrimidinediamine] | – | 91.8% | 66.7% |
| Cc1nc(N)nc(N)c1C=CC(C)c1ccccc1Cl (stereo not drawn) [compound 16, 2-amino-5-[3-(2-chlorophenyl)-1-butenyl]-6-methyl-4-pyrimidinylamine] | – | 73.7% | 61.7% |
| Cc1nc(N)nc(N)c1C=CC1(c2ccc(Cl)cc2)CCCC1 [compound 17, 2-amino-5-{2-[1-(4-chlorophenyl)cyclopentyl]vinyl}-6-methyl-4-pyrimidinylamine] | – | 74.9% | 64% |
| Cc1nc(N)nc(N)c1C=CC(C)(C)c1cc(Cl)cc(Cl)c1 [compound 18, 2-amino-5-[3-(3,5-dichlorophenyl)-3-methyl-1-butenyl]-6-methyl-4-pyrimidinylamine] | – | 89.7% | 78.9% |
| CC(C)c1nc(N)nc(N)c1C=CC(C)(C)c1ccc(C(F)(F)F)cc1 [compound 19, 6-isopropyl-5-{3-methyl-3-[4-(trifluoromethyl)phenyl]-1-butenyl}-2,4-pyrimidinediamine] | – | 89.8% | 80.6% |
| Cc1nc(N)nc(N)c1C=CC(C)(C)c1ccc(S(C)(=O)=O)cc1 [compound 20, 2-amino-6-methyl-5-{3-methyl-3-[4-(methylsulfonyl)phenyl]-1-butenyl}-4-pyrimidinylamine] | – | 64.2% | 63.7% |
| Cc1nc(N)nc(N)c1C=CC1(c2ccccc2C(F)(F)F)CC1 [compound 21, 6-methyl-5-[2-[1-[2-(trifluoromethyl)phenyl]cyclopropyl]vinyl]pyrimidine-2,4-diamine] | – | 87.9% | 52.9% |
| COc1ccc(C2(C=Cc3c(C)nc(N)nc3N)CC2)cc1 [compound 22, 5-[2-[1-(4-methoxyphenyl)cyclopropyl]vinyl]-6-methylpyrimidine-2,4-diamine] | – | 85.3% | 42.1% |
| Cc1nc(N)nc(N)c1C#CC1(c2ccc(C(F)(F)F)cc2)CC1 [compound 23, 6-methyl-5-[2-[1-[4-(trifluoromethyl)phenyl]cyclopropyl]ethynyl]pyrimidine-2,4-diamine] | – | 107% | 71.7% |
| Cc1nc(N)nc(N)c1C=CC1(c2ccc(OC(F)(F)F)cc2)CC1 [compound 24, 6-methyl-5-[2-[1-[4-(trifluoromethoxy)phenyl]cyclopropyl]vinyl]pyrimidine-2,4-diamine] | – | 87.8% | 39.2% |
| Cc1nc(N)nc(N)c1C=CC1(c2ccc(N3CCOCC3)cc2)CC1 [compound 25, 6-methyl-5-[2-[1-(4-morpholinophenyl)cyclopropyl]vinyl]pyrimidine-2,4-diamine] | – | 91.6% | 40.5% |
| Cc1nc(N)nc(N)c1C=CC1(c2cccc(C(F)(F)F)c2)CC1 [compound 26, 6-methyl-5-[2-[1-[3-(trifluoromethyl)phenyl]cyclopropyl]vinyl]pyrimidine-2,4-diamine] | – | 103% | 63.2% |
| Cc1nc(N)nc(N)c1C#CC1(c2cccc(C(F)(F)F)c2)CC1 [compound 27, 6-methyl-5-[2-[1-[3-(trifluoromethyl)phenyl]cyclopropyl]ethynyl]pyrimidine-2,4-diamine] | – | 105% | 73% |
| Cc1nc(N)nc(N)c1C#CC1(c2ccc(N3CCOCC3)cc2)CC1 [compound 28, 6-methyl-5-[2-[1-(4-morpholinophenyl)cyclopropyl]ethynyl]pyrimidine-2,4-diamine] | – | 107% | 70.1% |
| Cc1nc(N)nc(N)c1C#CC1(c2ccc(OC(F)(F)F)cc2)CC1 [compound 29, 6-methyl-5-[2-[1-[4-(trifluoromethoxy)phenyl]cyclopropyl]ethynyl]pyrimidine-2,4-diamine] | – | 95.5% | 62.6% |
